The values below come from ChEMBL document CHEMBL1130183, “Synthesis of a novel sialic acid derivative (sialylphospholipid) as an antirotaviral agent” (J Med Chem, 1997).

Each structure is given as a SMILES string.

Holding throughout (type): functional, organism-based
In test [1] the test system is Simian rotavirus. Nature of the test: Inhibitory concentration against Simian rotavirus SA-11 strain. The following applies: Rotavirus A.
Test [2] concerns Simian rotavirus. Nature of the test: Inhibitory concentration against Simian rotavirus SA-11 strain; No inhibition.
The subject of test [3] is Rotavirus. Nature of the test: Inhibitory concentration against human rotavirus MO strain; No inhibition.
Test [4] deals with Rotavirus. Nature of the test: Inhibitory concentration against human rotavirus MO strain.

Usually IC50 stands for the concentration at which inhibition is half-maximal. As for `CC(=O)NC1C(O)CC(O)(C(=O)O)OC1C(O)C(O)CO` (stereo not given), 4280 µM corresponded to half-maximal inhibition in test [1] (IC50). This lies in the millimolar range.

With `CCCCCCCCCCCCCCCCCC(=O)OCC(COP(=O)([O-])OCC[N+](C)(C)C)OC(=O)CCCCCCCCCCCCCCCCC` (stereo not given), the IC50 result in test [2] and in test [3] was “Not Active” throughout.

Regarding `CCCCCCCCCCCCCCCCCC(=O)OCC(COP(=O)(O)OCCCCCCCCOC1(C(=O)O)CC(O)C(NC(C)=O)C([C@H](O)[C@H](O)CO)O1)OC(=O)CCCCCCCCCCCCCCCCC` (stereo not given in full), the 50% inhibitory concentration (IC50) worked out at 4.35 µM in test [1] and 16.1 µM in test [4].
